Test results as given in patent publication US11760722B2 (priority 2022, dated 2023).
Values joined by “and” are separate entries in the source; they are usually repeats but may differ in a detail not shown here. Equal values may be shown once. Read-outs that look alike come from different tables or passages of the source.

Legend:
COVID-19 WT Mpro = biological target: T1, COVID-19 WT Mpro (Severe acute respiratory syndrome coronavirus 2, UniProt P0DTD1); assay: biochemical; details: WT Mpro 25 nM, substrate 25 μM, 30 min pre-incubation; several values in a cell = repeat determinations
T1 construct: The C-His6-tagged COVID-19 WT Mpro (NC_045512); His6 (C); host or cells: E. coli

SARS-CoV-2 replicon = assay: microbe, parasite or virus in culture; type: cell-based; details: read-out: Replicon EC50
[1] = test system: human coronavirus (HCoV) 229E; assay: microbe, parasite or virus in culture; type: cell-based, human coronavirus 229E; details: unidentified human coronavirus, 72 h, MRCS cells, HCoV 229E, 3 days, CellTiter Glo; read-out: 229E CPE EC50
[2] = Severe acute respiratory syndrome coronavirus 2, Huh-7, 24 h

CC1(C)[C@@H]2[C@@H](C(=O)N[C@H](C#N)C[C@@H]3CCNC3=O)N(C(=O)[C@@H]3CCCN3C(=O)C(F)(F)F)C[C@@H]21 [Compound 5]
IC50 (COVID-19 WT Mpro): > 30 µM
EC50 (SARS-CoV-2 replicon; [2]): > 30 µM

CC1(C)[C@@H]2[C@@H](C(=O)N[C@H](C#N)C[C@@H]3CCNC3=O)N(C(=O)[C@@H]3CCN3C(=O)C(F)(F)F)C[C@@H]21 [Compound 6]
IC50 (COVID-19 WT Mpro): 17.3 µM
EC50 (SARS-CoV-2 replicon; [2]): > 30 µM

COC(=O)N(C(=O)C(F)(F)F)[C@H](C(=O)N1C[C@H]2[C@@H]([C@H]1C(=O)N[C@H](C#N)C[C@@H]1CCNC1=O)C2(C)C)C(C)(C)C [Compound 8]
IC50 (COVID-19 WT Mpro): > 30 µM
EC50 (SARS-CoV-2 replicon; [2]): 3.11 µM

CC1(C)[C@@H]2[C@@H](C(=O)N[C@@H](C[C@@H]3CCNC3=O)C(=O)c3nc4ccccc4s3)N(C(=O)[C@@H]3CCCN3C(=O)C(F)(F)F)C[C@@H]21 [Compound 10]
IC50 (COVID-19 WT Mpro): > 30 µM
EC50 (SARS-CoV-2 replicon; [2]): 22.7 µM

CC1(C)[C@@H]2[C@@H](C(=O)N[C@@H](C[C@@H]3CCNC3=O)C(=O)c3nc4ccccc4s3)N(C(=O)[C@@H]3CCN3C(=O)C(F)(F)F)C[C@@H]21 [Compound 11]
IC50 (COVID-19 WT Mpro): 11 µM
EC50 (SARS-CoV-2 replicon; [2]): 25.5 µM

CC(C)(C)[C@H](NC(=O)[C@@H](NC(=O)c1cnccn1)C1CCCCC1)C(=O)N1C[C@H]2[C@@H]([C@H]1C(=O)N[C@H](C#N)C[C@@H]1CCNC1=O)C2(C)C [Compound 13]
IC50 (COVID-19 WT Mpro): 0.066 µM and 0.256 µM
EC50 (SARS-CoV-2 replicon; [2]): 1.63 µM
EC50 (SARS-CoV-2 replicon): 1.93 µM
EC50 [1]: 9.81 µM

CC(C)(C)[C@H](NC(=O)[C@H](NC(=O)c1cnccn1)C1CCCCC1)C(=O)N1C[C@H]2[C@@H]([C@H]1C(=O)N[C@H](C#N)C[C@@H]1CCNC1=O)C2(C)C [Compound 14]
IC50 (COVID-19 WT Mpro): > 30 µM
EC50 (SARS-CoV-2 replicon; [2]): > 30 µM

CC(C)(C)[C@H](NC(=O)C(F)(F)F)C(=O)N1C[C@H]2[C@@H]([C@H]1C(=O)N[C@H](C#N)Cc1cncnc1)C2(C)C [Compound 15]
IC50 (COVID-19 WT Mpro): > 30 µM
EC50 (SARS-CoV-2 replicon; [2]): > 30 µM

CC(C)(C)OC(=O)N1C2CCC1CC(C(=O)N[C@H](C(=O)N1C[C@H]3[C@@H]([C@H]1C(=O)N[C@H](C#N)C[C@@H]1CCNC1=O)C3(C)C)C(C)(C)C)C2 (some centres unmarked) [Compound 17]
IC50 (COVID-19 WT Mpro): 0.704 µM
EC50 (SARS-CoV-2 replicon; [2]): 2.64 µM
EC50 [1]: 7.96 µM

CC(C)(C)[C@H](NC(=O)C1CC2CCC(C1)O2)C(=O)N1C[C@H]2[C@@H]([C@H]1C(=O)N[C@H](C#N)C[C@@H]1CCNC1=O)C2(C)C (some centres unmarked) [Compound 19]
IC50 (COVID-19 WT Mpro): 3.71 µM
EC50 (SARS-CoV-2 replicon; [2]): > 30 µM
EC50 [1]: > 30 µM

CC(C)(C)[C@H](NC(=O)C1COC1)C(=O)N1C[C@H]2[C@@H]([C@H]1C(=O)N[C@H](C#N)C[C@@H]1CCNC1=O)C2(C)C [Compound 21]
IC50 (COVID-19 WT Mpro): 0.161 µM
EC50 (SARS-CoV-2 replicon; [2]): > 30 µM
EC50 [1]: > 30 µM

CC(C)(C)[C@H](NC(=O)c1ccc2[nH]ncc2c1)C(=O)N1C[C@H]2[C@@H]([C@H]1C(=O)N[C@H](C#N)C[C@@H]1CCNC1=O)C2(C)C [Compound 24]
IC50 (COVID-19 WT Mpro): 0.143 µM
EC50 (SARS-CoV-2 replicon; [2]): 3.61 µM
EC50 [1]: 23.4 µM

COC(C)(C)C(=O)N[C@H](C(=O)N1C[C@H]2[C@@H]([C@H]1C(=O)N[C@H](C#N)C[C@@H]1CCNC1=O)C2(C)C)C(C)(C)C [Compound 25]
IC50 (COVID-19 WT Mpro): 0.161 µM
EC50 (SARS-CoV-2 replicon; [2]): 2.35 µM
EC50 [1]: 2.47 µM

CC(C)(C)[C@H](NC(=O)c1cc2ccccc2s1)C(=O)N1C[C@H]2[C@@H]([C@H]1C(=O)N[C@H](C#N)C[C@@H]1CCNC1=O)C2(C)C [Compound 26]
IC50 (COVID-19 WT Mpro): 0.41 µM
EC50 (SARS-CoV-2 replicon; [2]): 2.56 µM
EC50 [1]: 5.86 µM

CC(C)(C)[C@H](NC(=O)c1cc2ccccc2[nH]1)C(=O)N1C[C@H]2[C@@H]([C@H]1C(=O)N[C@H](C#N)C[C@@H]1CCNC1=O)C2(C)C [Compound 28]
IC50 (COVID-19 WT Mpro): 0.728 µM
EC50 (SARS-CoV-2 replicon; [2]): 2.05 µM
EC50 [1]: 6.12 µM

CC(C)(C)[C@H](NC(=O)c1ccc2cncn2c1)C(=O)N1C[C@H]2[C@@H]([C@H]1C(=O)N[C@H](C#N)C[C@@H]1CCNC1=O)C2(C)C [Compound 29]
IC50 (COVID-19 WT Mpro): 0.405 µM
EC50 (SARS-CoV-2 replicon; [2]): > 30 µM
EC50 [1]: > 30 µM

CC(C)(C)[C@H](NC(=O)c1c(F)c(F)c(F)c(F)c1F)C(=O)N1C[C@H]2[C@@H]([C@H]1C(=O)N[C@H](C#N)C[C@@H]1CCNC1=O)C2(C)C [Compound 30]
IC50 (COVID-19 WT Mpro): 0.714 µM
EC50 (SARS-CoV-2 replicon; [2]): 3.56 µM
EC50 [1]: 1.8 µM

CC(C)(C)[C@H](NC(=O)c1cn2ccccc2n1)C(=O)N1C[C@H]2[C@@H]([C@H]1C(=O)N[C@H](C#N)C[C@@H]1CCNC1=O)C2(C)C [Compound 31]
IC50 (COVID-19 WT Mpro): 2.75 µM
EC50 (SARS-CoV-2 replicon; [2]): 22.2 µM
EC50 [1]: > 30 µM

CC(C)(C)OC(=O)N1c2ccccc2CC1C(=O)N[C@H](C(=O)N1C[C@H]2[C@@H]([C@H]1C(=O)N[C@H](C#N)C[C@@H]1CCNC1=O)C2(C)C)C(C)(C)C (some centres unmarked) [Compound 36]
IC50 (COVID-19 WT Mpro): 0.617 µM
EC50 (SARS-CoV-2 replicon; [2]): 2.75 µM
EC50 [1]: 15.6 µM

CC(C)(C)OC(=O)N1[C@@H](C(=O)N[C@H](C(=O)N2C[C@H]3[C@@H]([C@H]2C(=O)N[C@H](C#N)C[C@@H]2CCNC2=O)C3(C)C)C(C)(C)C)C[C@H]2CCCC[C@H]21 [Compound 37]
IC50 (COVID-19 WT Mpro): 2.15 µM
EC50 (SARS-CoV-2 replicon; [2]): 4.49 µM
EC50 [1]: > 30 µM

CN(C(=O)OC(C)(C)C)C(C)(C)C(=O)N[C@H](C(=O)N1C[C@H]2[C@@H]([C@H]1C(=O)N[C@H](C#N)C[C@@H]1CCNC1=O)C2(C)C)C(C)(C)C [Compound 38]
IC50 (COVID-19 WT Mpro): 9.82 µM
EC50 (SARS-CoV-2 replicon; [2]): > 30 µM
EC50 [1]: > 30 µM

CN(C)C(=O)N[C@H](C(=O)N1C[C@H]2[C@@H]([C@H]1C(=O)N[C@H](C#N)C[C@@H]1CCNC1=O)C2(C)C)C(C)(C)C [Compound 39, (1R,2S,5S)—N—((S)-1-cyano-2-((S)-2-oxopyrrolidin-3-yl)ethyl)-3-((S)-2-(3,3-dimethylureido)-3,3-dimethylbutanoyl)-6,6-dimethyl-3-azabicyclo[3.1.0]hexane-2-carboxamide]
IC50 (COVID-19 WT Mpro): 0.421 µM
EC50 (SARS-CoV-2 replicon; [2]): 17.6 µM
EC50 [1]: > 30 µM

CC(C)(C)[C@H](NC(=O)c1nc2ccccc2[nH]1)C(=O)N1C[C@H]2[C@@H]([C@H]1C(=O)N[C@H](C#N)C[C@@H]1CCNC1=O)C2(C)C [Compound 41]
IC50 (COVID-19 WT Mpro): 7.88 µM
EC50 (SARS-CoV-2 replicon; [2]): > 30 µM
EC50 [1]: > 30 µM

CC(C)(C)[C@H](NC(=O)c1ccc2cc[nH]c2c1)C(=O)N1C[C@H]2[C@@H]([C@H]1C(=O)N[C@H](C#N)C[C@@H]1CCNC1=O)C2(C)C [Compound 42]
IC50 (COVID-19 WT Mpro): 0.121 µM
EC50 (SARS-CoV-2 replicon; [2]): 2.48 µM

CC(C)(C)[C@H](NC(=S)NC1CCCCC1)C(=O)N1C[C@H]2[C@@H]([C@H]1C(=O)N[C@H](C#N)C[C@@H]1CCNC1=O)C2(C)C [Compound 43]
IC50 (COVID-19 WT Mpro): 1.23 µM
EC50 (SARS-CoV-2 replicon; [2]): 3.21 µM

CC(C)(C)[C@H](NC(=O)C1Cc2ccccc2N1)C(=O)N1C[C@H]2[C@@H]([C@H]1C(=O)N[C@H](C#N)C[C@@H]1CCNC1=O)C2(C)C (some centres unmarked) [Compound 45]
IC50 (COVID-19 WT Mpro): 0.385 µM
EC50 (SARS-CoV-2 replicon; [2]): 0.96 µM

CC(C)(C)[C@H](NC(=O)[C@H]1C[C@H]2CCCC[C@H]2N1)C(=O)N1C[C@H]2[C@@H]([C@H]1C(=O)N[C@H](C#N)C[C@@H]1CCNC1=O)C2(C)C [Compound 46]
IC50 (COVID-19 WT Mpro): 7.5 µM
EC50 (SARS-CoV-2 replicon; [2]): > 30 µM

CC(C)(C)[C@H](NC(=O)N1CCOCC1)C(=O)N1C[C@H]2[C@@H]([C@H]1C(=O)N[C@H](C#N)C[C@@H]1CCNC1=O)C2(C)C [Compound 48]
IC50 (COVID-19 WT Mpro): 0.224 µM
EC50 (SARS-CoV-2 replicon; [2]): 22 µM

CC1(C)[C@@H]2[C@@H](C(=O)N[C@H](C#N)C[C@@H]3CCNC3=O)N(C(=O)[C@@H](NC(=O)C(F)(F)F)C34CC(C3)C4)C[C@@H]21 [Compound 50]
IC50 (COVID-19 WT Mpro): 0.06 µM
EC50 (SARS-CoV-2 replicon; [2]): 0.27 µM

CC(C)(C)[C@H](NC(=O)c1cc2ccccn2n1)C(=O)N1C[C@H]2[C@@H]([C@H]1C(=O)N[C@H](C#N)C[C@@H]1CCNC1=O)C2(C)C [Compound 51]
IC50 (COVID-19 WT Mpro): 9.4 µM
EC50 (SARS-CoV-2 replicon; [2]): 9.54 µM

CC(C)(C)[C@H](NC(=O)N1CCCCC1)C(=O)N1C[C@H]2[C@@H]([C@H]1C(=O)N[C@H](C#N)C[C@@H]1CCNC1=O)C2(C)C [Compound 55]
IC50 (COVID-19 WT Mpro): 1.05 µM
EC50 (SARS-CoV-2 replicon; [2]): 6.04 µM

CC(C)(C)OC(=O)N1CCCC1(C)C(=O)N[C@H](C(=O)N1C[C@H]2[C@@H]([C@H]1C(=O)N[C@H](C#N)C[C@@H]1CCNC1=O)C2(C)C)C(C)(C)C (some centres unmarked) [Compound 57]
IC50 (COVID-19 WT Mpro): 0.057 µM
EC50 (SARS-CoV-2 replicon; [2]): 0.4 µM

CCc1ccc(S(=O)(=O)N[C@H](C(=O)N2C[C@H]3[C@@H]([C@H]2C(=O)N[C@H](C#N)C[C@@H]2CCNC2=O)C3(C)C)C(C)(C)C)s1 [Compound 170]
EC50 (SARS-CoV-2 replicon; [2]): 0.038 µM
EC50 [1]: 0.14 µM
